Test results from patent publication US20240254087A1, “SELECTIVE, PARTIAL, AND ARRESTIN-BIASED 5-HT2A AGONISTS WITH UTILITY IN VARIOUS DISORDERS” (Saint Joseph's University, priority 2021, published 2024).
Entries after “also recorded” stand apart in the source; their conditions may differ. Like-named read-outs stand apart in the source and are kept apart here.

Legend:
5-HT2A [1] = target: T1, 5-HT2A (Homo sapiens, UniProt P28223); assay: cell-based; set-up: expressed in transfected cells; host or cells: HEK293T, transient; conditions: read-out: 5-HT2A Gq Emax (% 5-HT), BRET, mean ± SEM
T1 sequence (P28223 whole entry): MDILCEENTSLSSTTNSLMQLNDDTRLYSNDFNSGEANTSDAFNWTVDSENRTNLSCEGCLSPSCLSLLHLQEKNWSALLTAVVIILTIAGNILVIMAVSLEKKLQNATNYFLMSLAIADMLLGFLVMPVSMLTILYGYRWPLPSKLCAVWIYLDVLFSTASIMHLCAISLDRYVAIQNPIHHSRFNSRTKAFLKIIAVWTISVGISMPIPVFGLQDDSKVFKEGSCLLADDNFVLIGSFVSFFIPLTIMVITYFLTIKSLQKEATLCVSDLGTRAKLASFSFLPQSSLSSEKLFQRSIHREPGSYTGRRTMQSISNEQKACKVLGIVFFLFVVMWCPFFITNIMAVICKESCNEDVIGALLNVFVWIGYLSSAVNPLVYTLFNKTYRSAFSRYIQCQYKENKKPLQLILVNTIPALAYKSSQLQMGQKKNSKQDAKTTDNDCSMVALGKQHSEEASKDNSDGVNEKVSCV

5-HT6 = 5-HT6 (Homo sapiens, UniProt P50406); assay: Competitive radioligand binding (NIMH PDSP)
Chain of 5-HT6 (P50406 whole entry, species assumed): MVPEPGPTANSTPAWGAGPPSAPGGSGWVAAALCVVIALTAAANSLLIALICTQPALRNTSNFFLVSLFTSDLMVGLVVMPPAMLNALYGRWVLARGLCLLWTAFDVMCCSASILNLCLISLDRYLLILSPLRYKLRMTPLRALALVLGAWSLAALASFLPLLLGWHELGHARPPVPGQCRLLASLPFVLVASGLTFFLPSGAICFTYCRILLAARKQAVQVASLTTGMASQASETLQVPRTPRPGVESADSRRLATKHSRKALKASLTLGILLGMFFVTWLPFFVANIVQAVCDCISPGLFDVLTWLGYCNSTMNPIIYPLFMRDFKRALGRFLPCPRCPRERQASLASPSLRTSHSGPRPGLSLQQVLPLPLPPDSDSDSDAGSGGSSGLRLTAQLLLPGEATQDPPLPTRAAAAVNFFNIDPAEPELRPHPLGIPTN

5-HT5a = 5-HT5a (Homo sapiens, UniProt P47898); assay: Competitive radioligand binding (NIMH PDSP)
Chain of 5-HT5a (P47898 whole entry, species assumed): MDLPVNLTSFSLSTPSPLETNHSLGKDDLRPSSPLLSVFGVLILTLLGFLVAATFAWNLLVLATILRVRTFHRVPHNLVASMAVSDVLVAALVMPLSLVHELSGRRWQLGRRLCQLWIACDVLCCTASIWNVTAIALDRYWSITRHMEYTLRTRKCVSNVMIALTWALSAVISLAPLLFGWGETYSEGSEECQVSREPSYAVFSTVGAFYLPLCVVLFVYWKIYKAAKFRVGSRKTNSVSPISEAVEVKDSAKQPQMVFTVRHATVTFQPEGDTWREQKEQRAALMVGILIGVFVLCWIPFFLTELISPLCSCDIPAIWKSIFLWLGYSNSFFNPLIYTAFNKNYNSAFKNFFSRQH

5-HT7 = 5-HT7 (Homo sapiens, UniProt P34969); assay: Competitive radioligand binding (NIMH PDSP)
Chain of 5-HT7 (P34969 whole entry, species assumed): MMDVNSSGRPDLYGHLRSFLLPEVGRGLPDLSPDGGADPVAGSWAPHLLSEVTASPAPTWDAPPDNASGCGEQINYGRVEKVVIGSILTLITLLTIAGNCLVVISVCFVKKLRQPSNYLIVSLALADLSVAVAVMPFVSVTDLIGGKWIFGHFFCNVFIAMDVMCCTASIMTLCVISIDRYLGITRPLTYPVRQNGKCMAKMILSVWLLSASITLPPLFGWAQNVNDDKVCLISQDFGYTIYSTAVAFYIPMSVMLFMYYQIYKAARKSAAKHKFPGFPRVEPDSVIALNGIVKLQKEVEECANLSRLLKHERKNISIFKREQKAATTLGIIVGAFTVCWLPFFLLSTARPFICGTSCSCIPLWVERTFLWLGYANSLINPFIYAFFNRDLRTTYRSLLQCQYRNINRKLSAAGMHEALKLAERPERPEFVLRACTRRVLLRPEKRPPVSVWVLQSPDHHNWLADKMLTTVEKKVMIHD

5-HT2A [2] = target: T1, 5-HT2A; assay: cell-based; set-up: expressed in transfected cells; host or cells: HEK293T, transient; conditions: for Emax: read-out: 5-HT2A β-arrestin Emax (% 5-HT), BRET, mean ± SEM
male C57BL/6J mice = assay: Head-twitch response (HTR) in mice; type: in vivo, mouse; conditions: for ED50: Mus musculus
In short: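 Head twitches in male C57BL/6J mice (6-8 weeks) carrying head-mounted magnets were detected with a magnetometer coil around a 12-cm glass cylinder during the dark phase. Coil signal was low-pass filtered at 2 kHz and digitized at 20 kHz. Counts were analyzed by one-way ANOVA with Dunnett's post hoc test.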

5-HT2C = target: T2, 5-HT2C (Homo sapiens, UniProt P28335); assay: BRET Gq dissociation, 5-HT2C; type: cell-based; set-up: expressed in transfected cells; host or cells: HEK293T, transient; conditions: for Emax: read-out: 5-HT2C Gq Dissociation (BRET) EMAX ± SEM (%5-HT)
T2 sequence (P28335 33-458): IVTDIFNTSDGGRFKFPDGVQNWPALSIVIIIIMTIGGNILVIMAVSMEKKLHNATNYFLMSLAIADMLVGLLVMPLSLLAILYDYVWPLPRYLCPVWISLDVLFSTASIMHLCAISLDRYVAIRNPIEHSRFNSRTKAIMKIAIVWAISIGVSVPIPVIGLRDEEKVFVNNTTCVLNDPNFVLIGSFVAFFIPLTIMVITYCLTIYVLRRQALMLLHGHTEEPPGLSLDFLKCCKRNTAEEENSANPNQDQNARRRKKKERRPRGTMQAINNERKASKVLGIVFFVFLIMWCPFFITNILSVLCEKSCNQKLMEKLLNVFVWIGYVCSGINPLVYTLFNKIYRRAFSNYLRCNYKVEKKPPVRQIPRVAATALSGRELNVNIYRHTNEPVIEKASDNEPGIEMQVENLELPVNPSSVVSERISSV

[3] = read-out: HTR ED50 mg/kg (95% CI), SC, except DOI and 25D-NBOMe IP
[4] = read-out: HTR ED50 μmol/kg (95% CI), SC, except DOI and 25D-NBOMe IP
[5] = SC, except DOI and 25D-NBOMe IP

| SMILES | Emax (5-HT2A [1]) | Ki (5-HT6) | Ki (5-HT5a) | Ki (5-HT7) | Emax (5-HT2A [2]) | Induction of the HTR in mice (in words) (male C57BL/6J mice) | Max HTR response during a 30-min assessment (maximum counts ÷ baseline response) (male C57BL/6J mice) | ED50 (male C57BL/6J mice; [3]) | EC50 (5-HT2C) | Emax (5-HT2C) | Difference in Emax (β-arrestin vs Gq) (5-HT2A [2]; BRET) | 5-HT2A β-arrestin Emax (% 5-HT) (5-HT2A [2]; BRET, mean ± SEM) | ED50 (male C57BL/6J mice; [4]) | 5-HT6 pKi affinity (Ki ± SEM) (5-HT6) | 5-HT5a pKi affinity (Ki ± SEM) (5-HT5a) | 5-HT7 pKi affinity (Ki ± SEM) (5-HT7) | HTR ED50 μmol/kg (95% CI) (male C57BL/6J mice; [5]) | HTR ED50 mg/kg (95% CI) (male C57BL/6J mice; [5]) | Induction of the HTR in mice (in words) (male C57BL/6J mice; listed as 25N—NB-3-HO (21)) |
| --- | --- | --- | --- | --- | --- | --- | --- | --- | --- | --- | --- | --- | --- | --- | --- | --- | --- | --- | --- |
| COc1cc([N+](=O)[O-])c(OC)cc1CCNCc1cccc(F)c1OC [25N-NB-2-MeO-3-F (19), [2-(2,5-dimethoxy-4-nitrophenyl)ethyl][(3-fluoro-2-methoxyphenyl)methyl]amine] | 71.1 ± 1.9% | > 10000 nM | 2.88 µM | > 10 µM | 120 ± 3.3% |  |  |  |  |  |  |  |  |  |  |  |  |  |  |
| COc1cc([N+](=O)[O-])c(OC)cc1CCNCc1ccccc1[N+](=O)[O-] [25N-NBNO2 (15), [2-(2,5-dimethoxy-4-nitrophenyl)ethyl][(2-nitrophenyl)methyl]amine] |  | > 10000 nM | > 10 µM | > 10 µM |  | lacked a HTR; also recorded: failed to induce a HTR; also recorded: do not induce the HTR | 1.9-fold increase | > 100 mg/kg | 148 nM | 61.3 ± 4.4% |  |  |  |  |  |  |  |  |  |
| COc1cc([N+](=O)[O-])c(OC)cc1CCNCc1cccc(C)c1O [25N-NB-2-OH-3-Me (18), 2-({[2-(2,5-dimethoxy-4-nitrophenyl)ethyl]amino}methyl)-6-methylphenol] | 50.8 ± 1.6% | 209 nM | 0.501 µM | 0.871 µM | 131% | failed to induce the HTR; also recorded: do not induce the HTR | 1.0-fold increase | > 10 mg/kg | 2.14 nM | 45.8 ± 2.4% | 81% | 130.7 ± 4.0 % 5-HT |  |  |  |  |  |  |  |
| COc1cc([N+](=O)[O-])c(OC)cc1CCNCc1cccc(C)c1 [25N-NB-3-Me (22), [2-(2,5-dimethoxy-4-nitrophenyl)ethyl][(3-methylphenyl)methyl]amine] | 41.7 ± 3.4% |  |  |  | 94.7 ± 4.2% |  |  |  |  |  |  |  |  |  |  |  |  |  |  |
| COc1cc([N+](=O)[O-])c(OC)cc1CCN [2C-N (1), 2-(2,5-dimethoxy-4-nitrophenyl)ethan-1-amine, reference compound] | 87.9 ± 1.4% | 251 nM | > 10 µM | > 10 µM | 83.8 ± 2.5% |  |  |  | 12.6 nM | 78.4 ± 2.5% |  |  |  |  |  |  |  |  |  |
| COc1cc([N+](=O)[O-])c(OC)cc1CCNCc1ccccc1OC [25N-NBOMe (4), [2-(2,5-dimethoxy-4-nitrophenyl)ethyl] [(2-methoxyphenyl)methyl]amine] | 98% | 55 nM | > 10 µM | > 10 µM | 136 ± 3.8% |  | 15.6-fold increase | 0.11 mg/kg | 0.302 nM | 112 ± 2.8% |  |  | 0.29 µmol/kg |  |  |  |  |  |  |
| COc1cc([N+](=O)[O-])c(OC)cc1CCNCc1cccc2ccccc12 [25N-N-1-Nap (16), [2-(2,5-dimethoxy-4-nitrophenyl)ethyl][(naphthalen-1-yl)methyl]amine] | 23.7 ± 1.4% | 79.4 nM | 1.1 µM | 0.186 µM | 78.2 ± 1.8% | failed to induce the HTR | 1.2-fold increase | > 30 mg/kg | 18.6 nM | 34.1 ± 4.4% |  |  |  |  |  |  |  |  |  |
| COc1cc([N+](=O)[O-])c(OC)cc1CCNCc1ccccc1 [25N-NB (2), Benzyl[2-(2,5-dimethoxy-4-nitrophenyl)ethyl]amine] | 79.5 ± 1.5% |  |  |  | 115 ± 4.1% |  | 9.1-fold increase | 1.25 mg/kg | 8.51 nM | 89.4 ± 2.3% |  |  | 3.53 µmol/kg |  |  |  |  |  |  |
| COc1cc([N+](=O)[O-])c(OC)cc1CCNCc1ccccc1OC(F)(F)F [25N-NBOCF3 (12)] |  |  |  |  |  | do not induce the HTR | 3.9-fold increase |  |  |  |  |  |  | 6.12 | 5.80 | <5 | 13.5 (6.81-26.8) μmol/kg | 5.90 (2.97-11.7) mg/kg |  |
| COc1cc([N+](=O)[O-])c(OC)cc1CCNCc1ccccc1-c1ccccc1 [25N-NBPh (17), ({[1,1′-biphenyl]-2-yl}methyl)[2-(2,5-dimethoxy-4-nitrophenyl)ethyl]amine] | 23.2 ± 1.5% |  |  |  | 109 ± 2.8% | lacked a HTR | 2.1-fold increase | > 100 mg/kg | 646 nM | 96.9 ± 10% |  |  |  |  |  |  |  |  |  |
| COc1cc([N+](=O)[O-])c(OC)cc1CCNCc1cccc(O)c1 [25N-NB-3-OH (21), 3-({[2-(2,5-dimethoxy-4-nitrophenyl)ethyl]amino}methyl)phenol] | 49.8 ± 4.3% | 69.2 nM | > 10 µM | > 10 µM | 119 ± 5.2% | inactive in the HTR | 1.7-fold increase | > 30 mg/kg |  |  |  |  |  |  |  |  |  |  | do not induce the HTR |
| COc1cc([N+](=O)[O-])c(OC)cc1CCNCc1ccccc1C(F)(F)F [25N-NBCF3 (14), [2-(2,5-dimethoxy-4-nitrophenyl)ethyl]({[2-(trifluoromethyl)phenyl]methyl}) amine] |  | 407 nM | > 10 µM | > 10 µM |  | lacked a HTR; also recorded: failed to induce a HTR; also recorded: do not induce the HTR | 2.6-fold increase | > 30 mg/kg |  |  |  |  |  |  |  |  |  |  |  |
| COc1cc([N+](=O)[O-])c(OC)cc1CCNCc1ccccc1I [25N-NBI (10)] |  | 380 nM | > 10 µM | > 10 µM |  |  | 3.0-fold increase | 4.94 mg/kg | 87.1 nM | 71.5 ± 2.2% |  |  | 10.3 µmol/kg |  |  |  |  |  |  |
